Results taken from PubChem BioAssay AID2060910 (Molecular Pharmacology Branch, DTP, NCI, 2025).
pIC50: −log10 of the molar value.

System: 242566-281-R-J2-PDC complex spheroid viability
Assay: Anticancer human tumor 242566-281-R-J2-PDC patient-derived pancreatic carcinoma cell line growth inhibition [RAS]
Conditions: for pIC50: curve of first compound; for viability, T/C: stronger effect = lower value
In short: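 Tumour cells grown as complex spheroids with HUVEC endothelial cells and mesenchymal stem cells, treated with RAS pathway inhibitor combinations. Each agent spans half-log steps from near clinical Cmax, or 10 microM where Cmax is unknown.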

[1] = second compound 0.0316 µM, first compound 0.000949 µM
[2] = second compound 0.0316 µM, first compound 0.003 µM
[3] = second compound 0.0316 µM, first compound 0.00949 µM
[4] = second compound 0.0316 µM, first compound 0.03 µM
[5] = second compound 0.0316 µM, first compound 0.0949 µM
[6] = second compound 0.0316 µM, first compound 0.3 µM
[7] = second compound 0.1 µM, first compound 0.000949 µM
[8] = second compound 0.1 µM, first compound 0.003 µM
[9] = second compound 0.1 µM, first compound 0.00949 µM
[10] = second compound 0.1 µM, first compound 0.03 µM
[11] = second compound 0.1 µM, first compound 0.0949 µM
[12] = second compound 0.1 µM, first compound 0.3 µM
[13] = second compound 0.316 µM, first compound 0.000949 µM
[14] = second compound 0.316 µM, first compound 0.003 µM
[15] = second compound 0.316 µM, first compound 0.00949 µM
[16] = second compound 0.316 µM, first compound 0.03 µM
[17] = second compound 0.316 µM, first compound 0.0949 µM
[18] = second compound 0.316 µM, first compound 0.3 µM
[19] = second compound 1 µM, first compound 0.000949 µM
[20] = second compound 1 µM, first compound 0.003 µM
[21] = second compound 1 µM, first compound 0.00949 µM
[22] = second compound 1 µM, first compound 0.03 µM
[23] = second compound 1 µM, first compound 0.0949 µM
[24] = second compound 1 µM, first compound 0.3 µM
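Also: spheroids exposed to compound for 7 days before readout.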
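For viability, T/C in this document: 100% = DMSO vehicle control wells.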

Compound `CC(=O)OC12COC1CC(O)C1(C)C(=O)C(O)C3=C(C)C(OC(=O)C(O)C(NC(=O)OC(C)(C)C)c4ccccc4)CC(O)(C(OC(=O)c4ccccc4)C21)C3(C)C` (stereo unspecified) + C=CC(=O)N1CCN(c2nc(OCC3CCCN3C)nc3c(F)c(-c4nc(N)cc(C)c4C(F)(F)F)c(Cl)cc23)C(C)C1 has a pIC50 (second compound 0.00316 µM) greater than 7.50, a pIC50 (second compound 0.01 µM) of 6.63 and a pIC50 (second compound 0.0316 µM) of 6.91. It also gave a pIC50 (second compound 0.1 µM) of less than 5.00, a pIC50 (second compound 0.316 µM) of less than 5.00 and a pIC50 (second compound 1 µM) greater than 7.50. The viability, T/C (second compound 0.00316 µM, first compound 0.0316 µM) was 52.6%, the viability, T/C (second compound 0.00316 µM, first compound 0.1 µM) was 53.8% and the viability, T/C (second compound 0.00316 µM, first compound 0.316 µM) was 50.5%. It also gave a viability, T/C (second compound 0.00316 µM, first compound 1 µM) of 35.5%, a viability, T/C (second compound 0.00316 µM, first compound 3.16 µM) of 54.5% and a viability, T/C (second compound 0.00316 µM, first compound 10 µM) of 69.3%. It also gave a viability, T/C (second compound 0.01 µM, first compound 0.0316 µM) of 71.5%, a viability, T/C (second compound 0.01 µM, first compound 0.1 µM) of 53% and a viability, T/C (second compound 0.01 µM, first compound 0.316 µM) of 42.2%. It also gave a viability, T/C (second compound 0.01 µM, first compound 1 µM) of 41.8%, a viability, T/C (second compound 0.01 µM, first compound 3.16 µM) of 45.2% and a viability, T/C (second compound 0.01 µM, first compound 10 µM) of 66.8%. It also gave a viability, T/C (second compound 0.0316 µM, first compound 0.0316 µM) of 80.4%, a viability, T/C (second compound 0.0316 µM, first compound 0.1 µM) of 51.9% and a viability, T/C (second compound 0.0316 µM, first compound 0.316 µM) of 39.3%. It also gave a viability, T/C (second compound 0.0316 µM, first compound 1 µM) of 35.6%, a viability, T/C (second compound 0.0316 µM, first compound 3.16 µM) of 48.5% and a viability, T/C (second compound 0.0316 µM, first compound 10 µM) of 66.5%. For the same compound, the viability, T/C (second compound 0.1 µM, first compound 0.0316 µM) was 61.1%, the viability, T/C (second compound 0.1 µM, first compound 0.1 µM) was 51.4% and the viability, T/C (second compound 0.1 µM, first compound 0.316 µM) was 47.6%. It also gave a viability, T/C (second compound 0.1 µM, first compound 1 µM) of 37.9%, a viability, T/C (second compound 0.1 µM, first compound 3.16 µM) of 46.5% and a viability, T/C (second compound 0.1 µM, first compound 10 µM) of 68.2%. For the same compound, the viability, T/C (second compound 0.316 µM, first compound 0.0316 µM) was 64.9%, the viability, T/C (second compound 0.316 µM, first compound 0.1 µM) was 52.1% and the viability, T/C (second compound 0.316 µM, first compound 0.316 µM) was 37%. It also gave a viability, T/C (second compound 0.316 µM, first compound 1 µM) of 49.3%, a viability, T/C (second compound 0.316 µM, first compound 3.16 µM) of 55.7% and a viability, T/C (second compound 0.316 µM, first compound 10 µM) of 71.4%. It also gave a viability, T/C (second compound 1 µM, first compound 0.0316 µM) of 52.7%, a viability, T/C (second compound 1 µM, first compound 0.1 µM) of 51.1% and a viability, T/C (second compound 1 µM, first compound 0.316 µM) of 44.8%. It also gave a viability, T/C (second compound 1 µM, first compound 1 µM) of 42.8%, a viability, T/C (second compound 1 µM, first compound 3.16 µM) of 50.9% and a viability, T/C (second compound 1 µM, first compound 10 µM) of 65.7%.

`CC1(C)CCC(Nc2ncc(C(F)(F)F)c(-c3c[nH]c4c(P(C)(C)=O)c(C#N)ccc34)n2)CN1` (stereo unspecified) + C=CC(=O)N1CCN(c2nc(OCC3CCCN3C)nc3c(F)c(-c4nc(N)cc(C)c4C(F)(F)F)c(Cl)cc23)C(C)C1 showed a pIC50 (second compound 0.00316 µM) of less than 6.52, a pIC50 (second compound 0.01 µM) of less than 6.52 and a pIC50 (second compound 0.0316 µM) of less than 6.52. For the same compound, the pIC50 (second compound 0.1 µM) was less than 6.52, the pIC50 (second compound 0.316 µM) was less than 6.52 and the pIC50 (second compound 1 µM) was less than 6.52. For the same compound, the viability, T/C (second compound 0.00316 µM, first compound 0.000949 µM) was 109%, the viability, T/C (second compound 0.00316 µM, first compound 0.003 µM) was 161% and the viability, T/C (second compound 0.00316 µM, first compound 0.00949 µM) was 154%. It also gave a viability, T/C (second compound 0.00316 µM, first compound 0.03 µM) of 128%, a viability, T/C (second compound 0.00316 µM, first compound 0.0949 µM) of 146% and a viability, T/C (second compound 0.00316 µM, first compound 0.3 µM) of 135%. It also gave a viability, T/C (second compound 0.01 µM, first compound 0.000949 µM) of 137%, a viability, T/C (second compound 0.01 µM, first compound 0.003 µM) of 151% and a viability, T/C (second compound 0.01 µM, first compound 0.00949 µM) of 142%. The viability, T/C (second compound 0.01 µM, first compound 0.03 µM) was 124%, the viability, T/C (second compound 0.01 µM, first compound 0.0949 µM) was 158% and the viability, T/C (second compound 0.01 µM, first compound 0.3 µM) was 129%. For the same compound, the viability, T/C [1] was 114%, the viability, T/C [2] was 173% and the viability, T/C [3] was 133%. It also gave a viability, T/C [4] of 113%, a viability, T/C [5] of 138% and a viability, T/C [6] of 132%. The viability, T/C [7] was 151%, the viability, T/C [8] was 130% and the viability, T/C [9] was 103%. The viability, T/C [10] was 137%, the viability, T/C [11] was 138% and the viability, T/C [12] was 144%. For the same compound, the viability, T/C [13] was 152%, the viability, T/C [14] was 144% and the viability, T/C [15] was 147%. It also gave a viability, T/C [16] of 109%, a viability, T/C [17] of 143% and a viability, T/C [18] of 149%. For the same compound, the viability, T/C [19] was 130%, the viability, T/C [20] was 139% and the viability, T/C [21] was 142%. For the same compound, the viability, T/C [22] was 123%, the viability, T/C [23] was 128% and the viability, T/C [24] was 121%.

With `CC1(C)CCC(Nc2ncc(C(F)(F)F)c(-c3c[nH]c4c(P(C)(C)=O)c(C#N)ccc34)n2)CN1` (stereo unspecified) + C#Cc1c(F)ccc2cc(O)cc(-c3ncc4c(N5CC6CCC(C5)N6)nc(OCC56CCCN5CC(F)C6)nc4c3F)c12 the pIC50 (second compound 0.0316 µM) was less than 6.52, the pIC50 (second compound 0.1 µM) was less than 6.52 and the pIC50 (second compound 0.316 µM) was less than 6.52. It also gave a pIC50 (second compound 1 µM) of less than 6.52, a pIC50 (second compound 3.16 µM) of less than 6.52 and a pIC50 (second compound 10 µM) greater than 9.02. The viability, T/C [1] was 90.3%, the viability, T/C [2] was 111% and the viability, T/C [3] was 85.6%. For the same compound, the viability, T/C [4] was 86.4%, the viability, T/C [5] was 84.9% and the viability, T/C [6] was 88.8%. The viability, T/C [7] was 78.1%, the viability, T/C [8] was 81.8% and the viability, T/C [9] was 71.6%. For the same compound, the viability, T/C [10] was 81.7%, the viability, T/C [11] was 81.2% and the viability, T/C [12] was 81.3%. It also gave a viability, T/C [13] of 70.7%, a viability, T/C [14] of 66.6% and a viability, T/C [15] of 62.3%. For the same compound, the viability, T/C [16] was 60.5%, the viability, T/C [17] was 62.9% and the viability, T/C [18] was 62.9%. The viability, T/C [19] was 59.4%, the viability, T/C [20] was 59.8% and the viability, T/C [21] was 49.3%. It also gave a viability, T/C [22] of 47.4%, a viability, T/C [23] of 55.1% and a viability, T/C [24] of 59.5%. The viability, T/C (second compound 3.16 µM, first compound 0.000949 µM) was 50.8%, the viability, T/C (second compound 3.16 µM, first compound 0.003 µM) was 57.5% and the viability, T/C (second compound 3.16 µM, first compound 0.00949 µM) was 48.4%. For the same compound, the viability, T/C (second compound 3.16 µM, first compound 0.03 µM) was 47.4%, the viability, T/C (second compound 3.16 µM, first compound 0.0949 µM) was 49.8% and the viability, T/C (second compound 3.16 µM, first compound 0.3 µM) was 53.3%. The viability, T/C (second compound 10 µM, first compound 0.000949 µM) was 45.2%, the viability, T/C (second compound 10 µM, first compound 0.003 µM) was 50% and the viability, T/C (second compound 10 µM, first compound 0.00949 µM) was 44.7%. It also gave a viability, T/C (second compound 10 µM, first compound 0.03 µM) of 50.2%, a viability, T/C (second compound 10 µM, first compound 0.0949 µM) of 53.4% and a viability, T/C (second compound 10 µM, first compound 0.3 µM) of 44.1%.
